{
  "source": "ChEMBL document CHEMBL3507680",
  "about": "“University of Dundee, Gates Library screen for HepG2 cell viability”",
  "assay": "Human HepG2 cell viability assay in 384 well format",
  "type": "toxicity, cell-based",
  "parameters": "dose 125 nL, time 70.5 hour; cytotoxicity at 70.5 h: concentration not given beside the values",
  "conditions": "HepG2 cells, read-out: Inhibition",
  "data": [
    {"smiles": "CN1CCCCc2c1nc1c(c2N)CCCC1", "values": [
      {"measurement": "cytotoxicity at 70.5 h", "value": -5.71, "unit": "%"}
    ]},
    {"smiles": "CC(=O)Nc1ncc(S(=O)(=O)Nc2cccc(O)c2)s1", "values": [
      {"measurement": "cytotoxicity at 70.5 h", "value": -13.4, "unit": "%"}
    ]},
    {"smiles": "CC(=O)Nc1ncc(S(=O)(=O)Nc2ccc3c(c2)OCCO3)s1", "values": [
      {"measurement": "cytotoxicity at 70.5 h", "value": -7.83, "unit": "%"}
    ]},
    {"smiles": "CSc1nc(N)c2c(n1)N=C1COC(O)=C1C2c1cccc(Cl)c1", "note": "(configuration not stated)", "values": [
      {"measurement": "cytotoxicity at 70.5 h", "value": 47.4, "unit": "%"}
    ]},
    {"smiles": "Cc1ccc(NC(=O)Nc2c(O)oc3ccccc3c2=O)cc1C", "values": [
      {"measurement": "cytotoxicity at 70.5 h", "value": -5.07, "unit": "%"}
    ]},
    {"smiles": "O=c1c2cc3c(cc2nnn1Cc1ccccc1)OCCO3", "values": [
      {"measurement": "cytotoxicity at 70.5 h", "value": -2.96, "unit": "%"}
    ]},
    {"smiles": "CCCNC(=O)c1nn(CC)cc1NC(=O)c1cn(C)nc1C", "values": [
      {"measurement": "cytotoxicity at 70.5 h", "value": -12.7, "unit": "%"}
    ]},
    {"smiles": "Cc1nn(C)c2c(=O)n(Cc3ccc(F)cc3)nnc12", "values": [
      {"measurement": "cytotoxicity at 70.5 h", "value": -7.56, "unit": "%"}
    ]},
    {"smiles": "CCc1nc(NCCn2cccn2)c2c(n1)c(C)nn2C", "values": [
      {"measurement": "cytotoxicity at 70.5 h", "value": -7.14, "unit": "%"}
    ]},
    {"smiles": "Cc1nn(C)c2c(NCc3ccccn3)nc(C(C)C)nc12", "values": [
      {"measurement": "cytotoxicity at 70.5 h", "value": 20.7, "unit": "%"}
    ]},
    {"smiles": "Cc1nn(C)c2c(=O)n(C)c(NCC3CCCO3)nc12", "note": "(configuration not stated)", "values": [
      {"measurement": "cytotoxicity at 70.5 h", "value": -3.29, "unit": "%"}
    ]},
    {"smiles": "COc1ccc(OC)c(Nc2nc3c(C)nn(C)c3c(=O)n2C)c1", "values": [
      {"measurement": "cytotoxicity at 70.5 h", "value": 7.63, "unit": "%"}
    ]},
    {"smiles": "CCn1c(NCc2ccccc2)nc2c(C)nn(C)c2c1=O", "values": [
      {"measurement": "cytotoxicity at 70.5 h", "value": -9.48, "unit": "%"}
    ]},
    {"smiles": "c1ccc(OCCNCc2cccs2)nc1", "values": [
      {"measurement": "cytotoxicity at 70.5 h", "value": 7.79, "unit": "%"}
    ]},
    {"smiles": "Fc1cccc(Cl)c1CNCCOc1ccccn1", "values": [
      {"measurement": "cytotoxicity at 70.5 h", "value": -20.9, "unit": "%"}
    ]},
    {"smiles": "Cc1ccsc1CNCCCOc1ccccn1", "values": [
      {"measurement": "cytotoxicity at 70.5 h", "value": 1.65, "unit": "%"}
    ]},
    {"smiles": "COc1ccc(CNc2n[nH]c(C)n2)cc1", "values": [
      {"measurement": "cytotoxicity at 70.5 h", "value": -11.8, "unit": "%"}
    ]},
    {"smiles": "Cc1cccc(CNc2n[nH]c(C)n2)c1", "values": [
      {"measurement": "cytotoxicity at 70.5 h", "value": -5.26, "unit": "%"}
    ]},
    {"smiles": "Cc1cc(C)cc(N2CC(c3nnc(N)s3)CC2=O)c1", "note": "(configuration not stated)", "values": [
      {"measurement": "cytotoxicity at 70.5 h", "value": 3.73, "unit": "%"}
    ]},
    {"smiles": "Cc1c(Cl)cccc1N1CC(c2nnc(N)s2)CC1=O", "note": "(configuration not stated)", "values": [
      {"measurement": "cytotoxicity at 70.5 h", "value": 5.68, "unit": "%"}
    ]},
    {"smiles": "CCOC(=O)c1sc(NC(=O)CCCC(=O)O)c(C#N)c1C", "values": [
      {"measurement": "cytotoxicity at 70.5 h", "value": -4.89, "unit": "%"}
    ]},
    {"smiles": "CCn1cc(S(=O)(=O)N2CCC(C)CC2)c(C)n1", "values": [
      {"measurement": "cytotoxicity at 70.5 h", "value": -14, "unit": "%"}
    ]},
    {"smiles": "O=S(=O)(c1ccc(F)cc1)n1cc(Cl)cn1", "values": [
      {"measurement": "cytotoxicity at 70.5 h", "value": -10.6, "unit": "%"}
    ]},
    {"smiles": "O=C(c1c(F)cccc1F)N1CCOCC1", "values": [
      {"measurement": "cytotoxicity at 70.5 h", "value": 18.9, "unit": "%"}
    ]},
    {"smiles": "CCN(Cc1ccncc1)S(C)(=O)=O", "values": [
      {"measurement": "cytotoxicity at 70.5 h", "value": 27.1, "unit": "%"}
    ]},
    {"smiles": "CCN1CCN(S(=O)(=O)c2cc(C)c(Cl)cc2C)CC1", "values": [
      {"measurement": "cytotoxicity at 70.5 h", "value": 2.46, "unit": "%"}
    ]},
    {"smiles": "Cc1ccc(CN2CCN(CC(=O)Nc3ccc4nsnc4c3)CC2)o1", "values": [
      {"measurement": "cytotoxicity at 70.5 h", "value": -5.71, "unit": "%"}
    ]},
    {"smiles": "CC(C)CCN1CCN(CC(=O)Nc2ccc3nsnc3c2)CC1", "values": [
      {"measurement": "cytotoxicity at 70.5 h", "value": -11.4, "unit": "%"}
    ]},
    {"smiles": "CC1CCC2(CC1)NC(=O)c1cc(Br)ccc1-n1nnnc12", "note": "(configuration not stated)", "values": [
      {"measurement": "cytotoxicity at 70.5 h", "value": -4.82, "unit": "%"}
    ]},
    {"smiles": "Cc1cccc(C)c1-n1nnnc1C1(NCc2ccco2)CCCC1", "values": [
      {"measurement": "cytotoxicity at 70.5 h", "value": -6.25, "unit": "%"}
    ]},
    {"smiles": "COc1ccc(-n2nnnc2C(C)(C)Nc2ccc(C)cc2C)cc1", "values": [
      {"measurement": "cytotoxicity at 70.5 h", "value": 40.2, "unit": "%"}
    ]},
    {"smiles": "Cc1nc(N2CCCC2)ncc1-c1cc(O)nc(N2CCCCC2)n1", "values": [
      {"measurement": "cytotoxicity at 70.5 h", "value": -10.4, "unit": "%"}
    ]},
    {"smiles": "CC(C)C(=O)N1CCC(C)(c2cc(O)[nH]n2)CC1", "values": [
      {"measurement": "cytotoxicity at 70.5 h", "value": 20, "unit": "%"}
    ]},
    {"smiles": "Cc1cc(CN(C)Cc2ccccc2N2CCCCC2)n[nH]1", "values": [
      {"measurement": "cytotoxicity at 70.5 h", "value": 1.54, "unit": "%"}
    ]},
    {"smiles": "COCC(=O)NC[C@H]1CC[C@H](c2nnc(-c3ccncc3)o2)CC1", "values": [
      {"measurement": "cytotoxicity at 70.5 h", "value": 15.8, "unit": "%"}
    ]},
    {"smiles": "O=C(NC[C@H]1CC[C@H](c2nnc(-c3cccnc3)o2)CC1)C1CC1", "values": [
      {"measurement": "cytotoxicity at 70.5 h", "value": 6.18, "unit": "%"}
    ]},
    {"smiles": "Cc1cncc(C2CCN(C(=O)c3ccc(-n4cccn4)nc3)CC2)n1", "values": [
      {"measurement": "cytotoxicity at 70.5 h", "value": -2.8, "unit": "%"}
    ]},
    {"smiles": "COc1ccc2[nH]cc(C(=O)N3C[C@@H](O)[C@H](N4CCCC4)C3)c2c1", "values": [
      {"measurement": "cytotoxicity at 70.5 h", "value": 17.1, "unit": "%"}
    ]},
    {"smiles": "CN1CCC(c2cccc(-c3ccc(C(=O)O)cc3)n2)CC1", "values": [
      {"measurement": "cytotoxicity at 70.5 h", "value": -2.41, "unit": "%"}
    ]},
    {"smiles": "Cc1c(CN2CCCC2(C)C(=O)NC2CCCC2)cnn1C", "note": "(configuration not stated)", "values": [
      {"measurement": "cytotoxicity at 70.5 h", "value": 5.02, "unit": "%"}
    ]},
    {"smiles": "CNc1nccnc1C1CN(Cc2ccc(OCC(=O)O)cc2)CCO1", "note": "(configuration not stated)", "values": [
      {"measurement": "cytotoxicity at 70.5 h", "value": -5.37, "unit": "%"}
    ]},
    {"smiles": "Cn1cc(CN2CCCC(c3nc(O)cc(-c4cccs4)n3)C2)cn1", "note": "(configuration not stated)", "values": [
      {"measurement": "cytotoxicity at 70.5 h", "value": -6.31, "unit": "%"}
    ]},
    {"smiles": "COc1ccc(S(=O)(=O)N2C[C@H](OC)[C@]3(CCCO3)C2)cc1", "values": [
      {"measurement": "cytotoxicity at 70.5 h", "value": -16.2, "unit": "%"}
    ]},
    {"smiles": "NC(=O)C1(Cc2ccc(-c3ccccc3)cc2)CCNC1", "note": "(configuration not stated)", "values": [
      {"measurement": "cytotoxicity at 70.5 h", "value": 36.2, "unit": "%"}
    ]},
    {"smiles": "Cc1ccccc1CC(=O)N1C[C@@H](O)[C@H](N2CCC(F)(F)CC2)C1", "values": [
      {"measurement": "cytotoxicity at 70.5 h", "value": -7.85, "unit": "%"}
    ]},
    {"smiles": "Cc1c[nH]nc1C1CCN(C(=O)C2CCOCC2)C1", "note": "(configuration not stated)", "values": [
      {"measurement": "cytotoxicity at 70.5 h", "value": 12.3, "unit": "%"}
    ]},
    {"smiles": "COc1cc2cc(C)c(SCCN3CCCC3)nc2cc1OC", "values": [
      {"measurement": "cytotoxicity at 70.5 h", "value": -6.08, "unit": "%"}
    ]}
  ]
}
